Holding throughout (type): biochemical
Test [1] has as its target T1, CDK2/CycE (Homo sapiens, UniProt P24941).
T1 construct: GST; purchased ProQinase GmbH (Freiburg, Germany); host or cells: insect cells (Sf9)
Nature of the test: CDK2 HTRF Assay (assay 4). As to conditions: 10 μM ATP, pIC50 = −log IC50 in molar concentration. From the text:
CDK2/CycE-inhibitory activity of compounds of the present invention was quantified employing the CDK2/CycE HTRF assay as described in the following paragraphs.
Recombinant fusion proteins of GST and human CDK2 and of GST and human CycE, expressed in insect cells (Sf9) and purified by Glutathion-Sepharose affinity chromatography, were purchase from ProQinase GmbH (Freiburg, Germany). As substrate for the kinase reaction biotinylated peptide biotin-Ttds-YISPLKSPYKISEG (C-terminus in amid form) was used which can be purchased e.g. form the company JERINI peptide technologies (Berlin, Germany).
CDK2/CycE was incubated for 60 min at 22° C. in the presence of different concentrations of test compounds in 5 μl assay buffer [50 mM Tris/HCl pH 8.0, 10 mM MgCl2, 1.0 mM dithiothreitol, 0.1 mM sodium ortho-vanadate, 10 μM adenosine-tri-phosphate (ATP), 0.75 μM substrate, 0.01% (v/v) Nonidet-P40 (Sigma), 1% (v/v) dimethylsulfoxide]. The concentration of CDK2/CycE was adjusted depending of the activity of the enzyme lot and was chosen appropriate to have the assay in the linear range, typical concentrations were in the range of 1 ng/ml. The reaction was stopped by the addition of 5 μl of a solution of HTRF detection reagents (0.2 μM streptavidine-XLent and 3.4 nM Phospho-(Ser) CDKs Substrate Antibody [product #2324B, Cell Signalling Technology, Danvers, Mass., USA} and 4 nM Prot-A-EuK [Protein A labeled with Europium Cryptate from Cis biointernational, France, product no. 61PRAKLB]) in an aqueous EDTA-solution (100 mM EDTA, 800 mM KF, 0.2% (w/v) bovine serum albumin in 100 mM HEPES/NaOH pH 7.0).

In test [2] the target is T2, Tie2 (Homo sapiens, UniProt Q02763).
T2 construct: A recombinant fusion protein of GST and the intracellular domains of Tie2; GST; made in house; host or cells: insect cells (Hi-5)
T2 sequence (Q02763 770-1124 limits assumed): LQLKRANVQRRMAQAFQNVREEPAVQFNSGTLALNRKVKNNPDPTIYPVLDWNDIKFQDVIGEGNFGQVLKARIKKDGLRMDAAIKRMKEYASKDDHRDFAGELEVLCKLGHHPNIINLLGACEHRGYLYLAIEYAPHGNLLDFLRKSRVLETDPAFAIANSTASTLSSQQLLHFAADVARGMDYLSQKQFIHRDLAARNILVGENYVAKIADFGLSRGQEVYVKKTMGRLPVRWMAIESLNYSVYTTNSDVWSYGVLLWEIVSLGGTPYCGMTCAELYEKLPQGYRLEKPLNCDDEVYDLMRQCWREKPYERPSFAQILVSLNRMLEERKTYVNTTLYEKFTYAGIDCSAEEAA
Nature of the test: Tie2-Kinase HTRF-Assay without kinase preactivation (assay 2). As to conditions: 10 μM ATP, pIC50 = −log IC50 in molar concentration, read-out: Tie 2 activity (assay 2). From the text: Tie2-inhibitory activity of compounds of the present invention was quantified employing two Tie2 HTRF assay as described in the following paragraphs.
A recombinant fusion protein of GST and the intracellular domains of Tie2, expressed in insect cells (Hi-5) and purified by Glutathion-Sepharose affinity chromatography was used as kinase. Alternatively, commercially available GST-Tie2-fusion protein (Upstate Biotechnology, Dundee, Scotland) can be used as substrate for the kinase reaction the biotinylated peptide biotin-Ahx-EPKDDAYPLYSDFG (C-terminus in amid form) was used which can be purchased e.g. from the company Biosynthan GmbH (Berlin-Buch, Germany). Detection of phosphorylated product is achieved specifically by a trimeric detection complex consisting of the phosphorylated substrate, streptavidin-XLent (SA-XLent) which binds to biotin, and Europium Cryptate-labeled anti-phosphotyrosine antibody PT66 which binds to phosphorylated tyrosine.
Tie2 (3.5 ng/measurement point) was incubated for 60 min at 22° C. in the presence of 10 μM adenosine-tri-phosphate (ATP) and 1 μM substrate peptide (biotin-Ahx-EPKDDAYPLYSDFG-NH2) with different concentrations of test compounds (0 μM and concentrations in the range 0.001-20 μM) in 5 μl assay buffer [50 mM Hepes/NaOH pH 7, 10 mM MgCl2, 0.5 mM MnCl2, 1.0 mM dithiothreitol, 0.01% NP40, protease inhibitor mixture (“Complete w/o EDTA” from Roche, 1 tablet per 2.5 ml), 1% (v/v) dimethylsulfoxide]. The reaction was stopped by the addition of 5 μl of an aqueous buffer (25 mM Hepes/NaOH pH 7.5, 0.28% (w/v) bovine serum albumin) containing EDTA (90 mM) and the HTRF (Homogeneous Time Resolved Fluorescence) detection reagents streptavidine-XLent (0.2 μM, from Cis Biointernational, Marcoule, France) and PT66-Eu-Chelate (0.3 ng/μl; a europium-chelate labelled anti-phospho-tyrosine antibody from Perkin Elmer).
(§1) The resulting mixture was incubated 1 h at 22° C. to allow the binding of the biotinylated phosphorylated peptide to the streptavidine-XLent and the PT66-Eu-Chelate. Subsequently the amount of phosphorylated substrate peptide was evaluated by measurement of the resonance energy transfer from the PT66-Eu-Chelate to the streptavidine-XLent. Therefore, the fluorescence emissions at 620 nm and 665 nm after excitation at 350 nm was measured in a HTRF reader, e.g. a Rubystar (BMG Labtechnologies, Offenburg, Germany) or a Viewlux (Perkin-Elmer). The ratio of the emissions at 665 nm and at […] was taken as the measure for the amount of phosphorylated substrate peptide. The data were normalised (enzyme reaction without inhibitor=0% inhibition, all other assay components but no enzyme=100% inhibition) and IC50 values were calculated by a 4 parameter fit using an inhouse software.

Test [3] addresses T3, preactivated Tie2 (Homo sapiens, UniProt Q02763).
T3 construct: A recombinant fusion protein of GST and the intracellular domains of Tie2; GST; made in house; host or cells: insect cells (Hi-5)
Nature of the test: Tie2-Kinase HTRF-Assay with kinase preactivation (assay 3). To be noted: 10 μM ATP, pIC50 = −log IC50 in molar concentration, read-out: Tie 2 activity (assay 3). The protocol:
Assay 3: Tie2-Kinase HTRF-Assay with Kinase Preactivation
A recombinant fusion protein of GST and the intracellular domains of Tie2, expressed in insect cells (Hi-5) and purified by Glutathion-Sepharose affinity chromatography was used as kinase. As substrate for the kinase reaction the biotinylated peptide biotin-Ahx-EPKDDAYPLYSDFG (C-terminus in amid form) was used which can be purchased e.g. from the company Biosynthan GmbH (Berlin-Buch, Germany).
For activation, Tie2 was incubated at a conc. 12.5 ng/μl of for 20 min at 22° C. in the presence of 250 μM adenosine-tri-phosphate (ATP) in assay buffer [50 mM Hepes/NaOH pH 7, 10 mM MgCl2, 0.5 mM MnCl2, 1.0 mM dithiothreitol, 0.01% NP40, protease inhibitor mixture (“Complete w/o EDTA” from Roche, 1 tablet per 2.5 ml)].
For the subsequent kinase reaction, the preactivated Tie2 (0.5 ng/measurement point) was incubated for 20 min at 22° C. in the presence of 10 μM adenosine-tri-phosphate (ATP) and 1 μM substrate peptide (biotin-Ahx-EPKDDAYPLYSDFG-NH2) with different concentrations of test compounds (0 μM and concentrations in the range 0.001-20 μM) in 5 μl assay buffer [50 mM Hepes/NaOH pH 7, 10 mM MgCl2, 0.5 mM MnCl2, 0.1 mM sodium ortho-vanadate, 1.0 mM dithiothreitol, 0.01% NP40, protease inhibitor mixture (“Complete w/o EDTA” from Roche, 1 tablet per 2.5 ml), 1% (v/v) dimethylsulfoxide]. The reaction was stopped by the addition of 5 μl of an aqueous buffer (25 mM Hepes/NaOH pH 7.5, 0.28% (w/v) bovine serum albumin) containing EDTA (90 mM) and the HTRF (Homogeneous Time Resolved Fluorescence) detection reagents streptavidine-XLent (0.2 μM, from Cis Biointernational, Marcoule, France) and PT66-Eu-Chelate (0.3 ng/μl; a europium-chelate labelled anti-phospho-tyrosine antibody from Perkin Elmer).
as §1

A value given as a limit tells only on which side of the number the result lay.

T3 sequence (Q02763 770-1124 limits assumed): as above

As to `CCOC(=O)N=S(C)(=O)c1cccc(Nc2ncc(-c3ccc(NC(=O)Nc4cc(C(F)(F)F)ccc4F)c(F)c3)c(OC)n2)c1` (racemic) [Example 31, 1-{4-[2-({3-[(RS)-N-(Ethoxycarbonyl)-S-methylsulfonimidoyl]phenyl}amino)-4-(methoxy)-pyrimidin-5-yl]-2-fluorophenyl}-3-[2-fluoro-5-(trifluoromethyl)-phenyl]urea], the figures for the IC50 in test [1], in test [2] and in test [3] were more than 10000 nM, less than 100 nM and less than 100 nM, respectively.
Take `CCOC(=O)N=S(C)(=O)c1cccc(Nc2ncc(-c3ccc(NC(=O)Nc4cccc(C(F)(F)F)c4)cc3)c(N[C@H](C)CO)n2)c1` (mixture of isomers) [Example 10, 1-{4-[2-({3-[(RS)-N-(Ethoxycarbonyl)-S-methylsulfonimidoyl]phenyl}amino)-4-{[(R)-2-hydroxy-1-methylethyl]amino}-pyrimidin-5-yl]-phenyl}-3-[3-(trifluoromethyl)-phenyl]urea]: the values for the IC50 in test [1] and in test [2] were more than 10000 nM and 100 to 1000 nM, respectively.
As to `CCOC(=O)N=S(C)(=O)c1ccc(Nc2ncc(-c3ccc(NC(=O)C4(c5ccccc5)CC4)cc3)c(N[C@H](C)CO)n2)cc1` (mixture of isomers) [Example 1, N-{4-[2-({4-[(RS)-N-(Ethoxycarbonyl)-S-methylsulfonimidoyl]phenyl}amino)-4-{[(R)-2-hydroxy-1-methylethyl]amino}-pyrimidin-5-yl]phenyl}-1-phenylcyclopropanecarboxamide], the IC50 in test [1] is more than 10000 nM; in test [2] it was 100 to 1000 nM.
In the case of `C[C@H](CO)Nc1nc(Nc2ccc(S(C)(=N)=O)cc2)ncc1-c1ccc(NS(=O)(=O)c2cccc(Cl)c2Cl)cc1` (mixture of isomers) [Example 24], the IC50 is more than 10000 nM in test [1] and 100 to 1000 nM in test [2].
For `CCOC(=O)N=S(C)(=O)c1cccc(Nc2ncc(-c3ccc(NC(=O)Nc4cc(C(F)(F)F)ccc4F)c(F)c3)c(SC)n2)c1` (racemic) [Example 17, 1-{4-[2-({3-[(RS)-N-(Ethoxycarbonyl)-S-methylsulfonimidoyl]phenyl}amino)-4-(methylsulfanyl)pyrimidin-5-yl]-2-fluorophenyl}-3-[2-fluoro-5-(trifluoromethyl)phenyl]urea], the IC50 in test [1] is more than 10000 nM; in test [2] it was less than 100 nM.
Regarding `CCOC(=O)N=S(C)(=O)c1cccc(Nc2ncc(-c3ccc(NC(=O)Nc4cc(C(F)(F)F)ccc4F)c(F)c3)c(NCCN3CCOCC3)n2)c1` (racemic) [Example 29, 1-{4-[2-({3-[(RS)-N-(Ethoxycarbonyl)-S-methylsulfonimidoyl]phenyl}amino)-4-{[2-(morpholin-4-yl)ethyl]amino}pyri-midin-5-yl]-2-fluorophenyl}-3-[2-fluoro-5-(trifluoromethyl)-phenyl]urea], the IC50 in test [1] is more than 10000 nM; in test [2] it was less than 100 nM.
On to `CS(=N)(=O)c1cccc(Nc2ncc(-c3ccc(NC(=O)Nc4cc(C(F)(F)F)ccc4F)c(F)c3)c(NCCc3ccccc3)n2)c1` (racemic) [Example 48, 1-[2-Fluoro-4-(2-{[3-(RS)-(S-methylsulfonimidoyl)phenyl]amino}-4-[(2-phenylethyl)amino]-pyrimidin-5-yl)phenyl]-3-[2-fluoro-5-(trifluoromethyl)-phenyl]urea], for which the IC50 in test [1] was more than 10000 nM; in test [2], 100 to 1000 nM.
In the case of `CCOC(=O)N=S(C)(=O)c1ccc(Nc2ncc(-c3ccc(NC(=O)Nc4ccccc4)cc3)c(N[C@H](C)CO)n2)cc1` (mixture of isomers) [Example 6, 1-{4-[2-({4-[(RS)-N-(Ethoxycarbonyl)-S-methylsulfonimidoyl]phenyl}amino)-4-{[(R)-2-hydroxy-1-methylethyl]amino}-pyrimidin-5-yl]-phenyl}-3-[phenyl]urea], the IC50 in test [1] is more than 10000 nM; in test [2] it was 100 to 1000 nM.
Regarding `CC(C)NC(=O)N=S(C)(=O)c1cccc(Nc2ncc(-c3ccc(NC(=O)Nc4cccc(C(F)(F)F)c4)cc3)c(N[C@H](C)CO)n2)c1` (mixture of isomers) [Example 14, 1-{4-[4-{[(R)-2-hydroxy-1-methylethyl]amino}-2-({3-[(RS)-N-(isopropylcarbamoyl) -S-methylsulfonimidoyl]phenyl}amino)-pyrimidin-5-yl]phenyl}-3-[3-(trifluoromethyl)-phenyl]urea], the IC50 in test [1] is more than 10000 nM; in test [2], 100 to 1000 nM.
For the molecule `CSc1nc(Nc2cccc(S(C)(=N)=O)c2)ncc1-c1ccc(NC(=O)Nc2cc(C(F)(F)F)ccc2F)c(F)c1` (racemic) [Example 44, 1-{2-Fluoro-4-[2-{[3-(RS)-(S-methylsulfonimidoyl)phenyl]amino}-4-(methylthio)-pyrimidin-5-yl]phenyl}-3-[2-fluoro-5-(trifluoromethyl)-phenyl]urea], the IC50 in test [1] is more than 10000 nM; in test [2] it was less than 100 nM.
`C[C@H](CO)Nc1nc(Nc2cccc(S(C)(=N)=O)c2)ncc1-c1ccc(NC(=O)Nc2cccc(C(F)(F)F)c2)cc1` (mixture of isomers) [Example 39, 1-[4-(4-{[(R)-2-Hydroxy-1-methylethyl]amino}-2-{[3-(RS)-(S-methylsulfonimidoyl)phenyl]amino}-pyrimidin-5-yl)phenyl]-3-[3-(trifluoromethyl)-phenyl]urea]: the IC50 in test [1] is more than 10000 nM; in test [2], less than 100 nM.

Values taken from US8003655B2, “Substituted sulphoximines as TIE2 inhibitors and salts thereof, pharmaceutical compositions comprising same, methods of preparing same and uses of same” (Bayer Schering Pharma AG, priority 2006, dated 2011).
